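Interpolation was linear, between the two tested concentrations surrounding the appropriate level; five concentrations were tested over 48 hours in 96-well plates. Abbreviation: GI50, concentration required for 50% inhibition of growth. At the TGI there is no net growth.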

The test system of the first assay is K-562 leukemia. The experiment in a line: NCI-60 cell line screen, 48 h.
As to `O=C(O)c1cc([N+](=O)[O-])cc2c(=O)c3cnccc3[nH]c12`, the TGI was more than 100 µM.

Consider `CCCCCCCCCCCCCCCCCCOc1ccccc1CC(=O)OCC[N+]1(C)CCCCC1`, for which the GI50 was 2.83 µM and the TGI came out at 10.1 µM.

Compound `Nc1ncnc2c1ncn2C=C=CCO` gave a TGI of more than 100 µM.

For `CN1CCc2[nH]c3ccccc3c2C1`, the TGI was more than 100 µM.

Consider `C[C@]12C=CC(=O)C=C1CC[C@@H]1[C@@H]2CC[C@]2(C)OC(=O)CC[C@@H]12`, for which the TGI was more than 500 µM.

In the case of `Nc1ncnc2nc[nH]c12`, the TGI is more than 250 µM.

`CN1CCOC(c2ccc(Cl)cc2)O1` (stereo not given) had a TGI of more than 100 µM.

With `CCOc1ccc(NC(=O)C(=O)CC(=O)c2sc(NNC(C)=O)nc2C)cc1`, the TGI is more than 100 µM.

In the next assay the test system is HCC-2998 colon. The experiment in a line: NCI-60 cell line screen, 48 h.
Turning to `O=C(O)c1cc([N+](=O)[O-])cc2c(=O)c3cnccc3[nH]c12`, the TGI is more than 100 µM.

With `Nc1ncnc2c1ncn2C=C=CCO`, the TGI is more than 100 µM.

`CN1CCc2[nH]c3ccccc3c2C1` registered a TGI of more than 100 µM.

With `C[C@]12C=CC(=O)C=C1CC[C@@H]1[C@@H]2CC[C@]2(C)OC(=O)CC[C@@H]12`, the TGI was more than 409 µM.

Compound `Nc1ncnc2nc[nH]c12` had a TGI of more than 191 µM.

With `CN1CCOC(c2ccc(Cl)cc2)O1` (stereo not given), the TGI was more than 100 µM.

For `CCOc1ccc(NC(=O)C(=O)CC(=O)c2sc(NNC(C)=O)nc2C)cc1`, the TGI was more than 100 µM.

A further assay deals with DLD-1 colon. The experiment in a line: NCI-60 cell line screen, 48 h.
In turn, `CN1CCc2[nH]c3ccccc3c2C1` showed a TGI of more than 100 µM.

As for `C[C@]12C=CC(=O)C=C1CC[C@@H]1[C@@H]2CC[C@]2(C)OC(=O)CC[C@@H]12`, the TGI is more than 500 µM.

In turn, `Nc1ncnc2nc[nH]c12` yielded a TGI of more than 250 µM.

Consider `CCOc1ccc(NC(=O)C(=O)CC(=O)c2sc(NNC(C)=O)nc2C)cc1`, for which the TGI is more than 100 µM.

The subject of another assay is MCF7 breast. The experiment in a line: NCI-60 cell line screen, 48 h.
As to `O=C(O)c1cc([N+](=O)[O-])cc2c(=O)c3cnccc3[nH]c12`, the TGI is more than 100 µM.

In the case of `CCCCCCCCCCCCCCCCCCOc1ccccc1CC(=O)OCC[N+]1(C)CCCCC1`, the GI50 was 2.07 µM and the TGI was found to be 4.97 µM.

In the case of `Nc1ncnc2c1ncn2C=C=CCO`, the TGI was more than 100 µM.

Compound `CN1CCc2[nH]c3ccccc3c2C1` registered a TGI of more than 100 µM.

Take `C[C@]12C=CC(=O)C=C1CC[C@@H]1[C@@H]2CC[C@]2(C)OC(=O)CC[C@@H]12`: the TGI is more than 500 µM.

Regarding `Nc1ncnc2nc[nH]c12`, the TGI is more than 162 µM.

Consider `CN1CCOC(c2ccc(Cl)cc2)O1` (stereo not given), for which the TGI was more than 100 µM.

The test system of a further assay is SNB-19 CNS. Kind of assay: NCI-60 cell line screen, 48 h.
Consider `O=C(O)c1cc([N+](=O)[O-])cc2c(=O)c3cnccc3[nH]c12`, for which the TGI was more than 100 µM.

Turning to `CCCCCCCCCCCCCCCCCCOc1ccccc1CC(=O)OCC[N+]1(C)CCCCC1`, the GI50 is 2.05 µM and the TGI came to 4.94 µM.

On to `Nc1ncnc2c1ncn2C=C=CCO`, for which the TGI was more than 100 µM.

For `CN1CCc2[nH]c3ccccc3c2C1`, the TGI is more than 100 µM.

Compound `C[C@]12C=CC(=O)C=C1CC[C@@H]1[C@@H]2CC[C@]2(C)OC(=O)CC[C@@H]12` registered a TGI of more than 500 µM.

Take `Nc1ncnc2nc[nH]c12`: the GI50 is 105 µM and the TGI was more than 146 µM.

`CN1CCOC(c2ccc(Cl)cc2)O1` (stereo not given): the TGI was more than 100 µM.

`CCOc1ccc(NC(=O)C(=O)CC(=O)c2sc(NNC(C)=O)nc2C)cc1` registered a TGI of more than 100 µM.

The next assay relates to OVCAR-8 ovarian. Kind of assay: NCI-60 cell line screen, 48 h.
In the case of `O=C(O)c1cc([N+](=O)[O-])cc2c(=O)c3cnccc3[nH]c12`, the TGI is more than 100 µM.

As to `CCCCCCCCCCCCCCCCCCOc1ccccc1CC(=O)OCC[N+]1(C)CCCCC1`, the GI50 is 2.4 µM and the TGI was determined as 5.99 µM.

On to `Nc1ncnc2c1ncn2C=C=CCO`, for which the TGI is more than 100 µM.

For `CN1CCc2[nH]c3ccccc3c2C1`, the TGI is more than 100 µM.

In the case of `C[C@]12C=CC(=O)C=C1CC[C@@H]1[C@@H]2CC[C@]2(C)OC(=O)CC[C@@H]12`, the TGI came to 498 µM.

In the case of `Nc1ncnc2nc[nH]c12`, the TGI is more than 250 µM.

On to `CN1CCOC(c2ccc(Cl)cc2)O1` (stereo not given), for which the TGI is more than 100 µM.

`CCOc1ccc(NC(=O)C(=O)CC(=O)c2sc(NNC(C)=O)nc2C)cc1`: the TGI is more than 100 µM.

Another assay deals with RPMI-8226 leukemia. Kind of assay: NCI-60 cell line screen, 48 h.
`O=C(O)c1cc([N+](=O)[O-])cc2c(=O)c3cnccc3[nH]c12` came in with a TGI of more than 100 µM.

The compound `Nc1ncnc2c1ncn2C=C=CCO` returned a TGI of more than 100 µM.

In turn, `CN1CCc2[nH]c3ccccc3c2C1` yielded a TGI of more than 100 µM.

In turn, `C[C@]12C=CC(=O)C=C1CC[C@@H]1[C@@H]2CC[C@]2(C)OC(=O)CC[C@@H]12` gave a TGI of more than 500 µM.

Take `Nc1ncnc2nc[nH]c12`: the TGI was more than 250 µM.

`CCOc1ccc(NC(=O)C(=O)CC(=O)c2sc(NNC(C)=O)nc2C)cc1` came in with a TGI of more than 100 µM.

For another assay, the system named is SR leukemia. The experiment in a line: NCI-60 cell line screen, 48 h.
As for `O=C(O)c1cc([N+](=O)[O-])cc2c(=O)c3cnccc3[nH]c12`, the TGI was more than 100 µM.

Consider `CCCCCCCCCCCCCCCCCCOc1ccccc1CC(=O)OCC[N+]1(C)CCCCC1`, for which the GI50 is 1.93 µM and the TGI was 4.97 µM.

In turn, `Nc1ncnc2c1ncn2C=C=CCO` showed a TGI of more than 100 µM.

With `C[C@]12C=CC(=O)C=C1CC[C@@H]1[C@@H]2CC[C@]2(C)OC(=O)CC[C@@H]12`, the TGI was more than 489 µM.

In the case of `CN1CCOC(c2ccc(Cl)cc2)O1` (stereo not given), the TGI was more than 100 µM.

As for `CCOc1ccc(NC(=O)C(=O)CC(=O)c2sc(NNC(C)=O)nc2C)cc1`, the TGI is more than 100 µM.

The next assay deals with NCI/ADR-RES ovarian. The experiment in a line: NCI-60 cell line screen, 48 h.
Turning to `O=C(O)c1cc([N+](=O)[O-])cc2c(=O)c3cnccc3[nH]c12`, the TGI was more than 100 µM.

For the compound `CCCCCCCCCCCCCCCCCCOc1ccccc1CC(=O)OCC[N+]1(C)CCCCC1`, the GI50 is 14.9 µM and the TGI is 46.6 µM.

The compound `Nc1ncnc2c1ncn2C=C=CCO` returned a TGI of more than 100 µM.

With `CN1CCc2[nH]c3ccccc3c2C1`, the TGI was more than 100 µM.

Regarding `C[C@]12C=CC(=O)C=C1CC[C@@H]1[C@@H]2CC[C@]2(C)OC(=O)CC[C@@H]12`, the TGI was more than 500 µM.

The compound `Nc1ncnc2nc[nH]c12` had a TGI of 99.5 µM.

Compound `CN1CCOC(c2ccc(Cl)cc2)O1` (stereo not given) registered a TGI of more than 100 µM.

Another assay has as its system EKVX NSCLC. Kind of assay: NCI-60 cell line screen, 48 h.
`CCCCCCCCCCCCCCCCCCOc1ccccc1CC(=O)OCC[N+]1(C)CCCCC1`: the GI50 is 2.65 µM and the TGI was 17.5 µM.

Take `CN1CCc2[nH]c3ccccc3c2C1`: the TGI is more than 100 µM.

Take `C[C@]12C=CC(=O)C=C1CC[C@@H]1[C@@H]2CC[C@]2(C)OC(=O)CC[C@@H]12`: the TGI was more than 500 µM.

`Nc1ncnc2nc[nH]c12` came in with a TGI of more than 250 µM.

`CN1CCOC(c2ccc(Cl)cc2)O1` (stereo not given): the TGI is more than 100 µM.

In turn, `CCOc1ccc(NC(=O)C(=O)CC(=O)c2sc(NNC(C)=O)nc2C)cc1` returned a TGI of more than 100 µM.

The test system of the next assay is SNB-75 CNS. Kind of assay: NCI-60 cell line screen, 48 h.
In turn, `O=C(O)c1cc([N+](=O)[O-])cc2c(=O)c3cnccc3[nH]c12` yielded a TGI of more than 100 µM.

On to `CCCCCCCCCCCCCCCCCCOc1ccccc1CC(=O)OCC[N+]1(C)CCCCC1`, for which the GI50 is 1.39 µM and the TGI amounted to 3.72 µM.

Compound `Nc1ncnc2c1ncn2C=C=CCO` displayed a TGI of more than 100 µM.

As to `CN1CCc2[nH]c3ccccc3c2C1`, the TGI is more than 100 µM.

In turn, `C[C@]12C=CC(=O)C=C1CC[C@@H]1[C@@H]2CC[C@]2(C)OC(=O)CC[C@@H]12` had a TGI of more than 487 µM.

In turn, `Nc1ncnc2nc[nH]c12` gave a TGI of more than 155 µM.

`CN1CCOC(c2ccc(Cl)cc2)O1` (stereo not given) returned a TGI of more than 100 µM.

Regarding `CCOc1ccc(NC(=O)C(=O)CC(=O)c2sc(NNC(C)=O)nc2C)cc1`, the TGI is more than 100 µM.

A further assay deals with HCT-116 colon. Kind of assay: NCI-60 cell line screen, 48 h.
`O=C(O)c1cc([N+](=O)[O-])cc2c(=O)c3cnccc3[nH]c12` displayed a TGI of more than 100 µM.

In turn, `Nc1ncnc2c1ncn2C=C=CCO` gave a TGI of more than 100 µM.

Regarding `CN1CCc2[nH]c3ccccc3c2C1`, the TGI was more than 100 µM.

As to `C[C@]12C=CC(=O)C=C1CC[C@@H]1[C@@H]2CC[C@]2(C)OC(=O)CC[C@@H]12`, the TGI was more than 482 µM.

Take `Nc1ncnc2nc[nH]c12`: the TGI was more than 250 µM.

For `CCOc1ccc(NC(=O)C(=O)CC(=O)c2sc(NNC(C)=O)nc2C)cc1`, the TGI was more than 100 µM.

Values taken from PubChem BioAssay (NCI).
